Drug sensitivity score data for 31 compounds are collected here from the supplement of paper PMC11616607.

For one experiment, the system named is COV318. Nature of the experiment: drug sensitivity score (DSS) from 5-point dose-response viability curve (DSS (area-under-curve based score)); higher = more sensitive (stronger growth inhibition or killing); extreme values may be limits of the assay. The conditions noted are these: exposure time: 72 h; concentration range: 5 concentrations over 10,000-fold range. Summed up: (§1)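 Drug sensitivity scores were calculated in Breeze software for each cell line and drug pair; higher scores indicate more sensitivity. A score of zero indicates no response. The underlying assay used 384-well plates: drugs were placed by an Echo 550 acoustic dispenser at five concentrations spanning a 10,000-fold range, 1,500 ovarian cancer or normal ovarian cells were added per well, and cells were kept 3 days at 37°C, 5% CO2. Viability was then measured with CellTiter-Glo luminescence on a PHERAstar FS.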
`COc1cc(N2CCC(N3CCN(C)CC3)CC2)ccc1Nc1ncnc(Nc2ccccc2S(=O)(=O)C(C)C)n1` [ASP3026] yielded a drug sensitivity score of 2.9. Still for that read-out and setting: for `CNC(=O)c1ccccc1Nc1cc(Nc2ccc(N3CCOCC3)cc2OC)ncc1C(F)(F)F` [VS-4718] the value was 5.6; for `CC(=O)c1c(C)c2cnc(Nc3ccc(N4CCNCC4)cn3)nc2n(C2CCCC2)c1=O` [Palbociclib], 3.2. As to `CS(=O)(=O)N1CCN(Cc2cc3nc(-c4cccc5[nH]ncc45)nc(N4CCOCC4)c3s2)CC1` [Pictilisib], the drug sensitivity score came to 5.3. The same measure, in the same setting: for `CCS(=O)(=O)N1CC(CC#N)(n2cc(-c3ncnc4[nH]ccc34)cn2)C1` [Baricitinib] the value was 0; for `O=C(Nc1cnn2ccc(N3CCC[C@@H]3c3cc(F)ccc3F)nc12)N1CC[C@H](O)C1` [Larotrectinib], 0.

Consider `CCN1CCN(Cc2ccc(Nc3ncc(F)c(-c4cc(F)c5nc(C)n(C(C)C)c5c4)n3)nc2)CC1` [Abemaciclib], for which the drug sensitivity score worked out at 1. The same measure, in the same setting: to `O=C(Nc1ccncc1)C(=O)c1cn(Cc2ccc(Cl)cc2)c2ccccc12` [Indibulin] belongs 2.5; to `CN(C)C[C@@H]1CCn2cc(c3ccccc32)C2=C(C(=O)NC2=O)c2cn(c3ccccc23)CCO1` [Ruboxistaurin], 7.7. Same read-out and setting: for `C[C@H](Nc1ncnc2[nH]cnc12)c1cc2ccc(F)cc2nc1-c1ccccn1` [AMG319] the value was 0.1; for `CC(C)(C)c1cc(NC(=O)Nc2ccc(Oc3ccnc4[nH]c(=O)cnc34)cc2F)n(-c2ccccc2)n1`, 0; for `CCn1cc(-c2ccnc3[nH]c(-c4cccc(CN(C)C)c4)cc23)c(-c2ccc(NC(=O)N(C)C)cc2)n1`, 0.2. On the same count and under the same terms, for `CCCCCCCCc1ccc(CCC(N)(CO)CO)cc1` [Fingolimod] the value was 7; for `C1=N/C2=N/c3ccc(OCCN4CCCC4)c(c3)COC/C=C/COCc3cccc(c3)C(=C1)N2` [Pacritinib], 5.3. Compound `Nc1ccccc1NC(=O)c1ccc(CNc2nccc(-c3cccnc3)n2)cc1` [Mocetinostat] came in with a drug sensitivity score of 8.1. On the same count and under the same terms, to `N#CC1(c2ccc(NC(=O)c3cccnc3NCc3ccncc3)cc2)CCCC1` [Apatinib] belongs 0.

In the next experiment the test system is HOSE2C. Described as above. The settings on record: exposure time: 72 h; concentration range: 5 concentrations over 10,000-fold range. Summed up:
as §1
`O=C(O)c1ccc2c(c1)nc(Nc1cccc(Cl)c1)c1ccncc12` [Silmitasertib] had a drug sensitivity score of 4.5. On the same count and under the same terms, for `CCOc1ccccc1-n1c(C(C)N2CCN(C(=O)COc3ccc(Cl)cc3)CC2)nc2ccccc2c1=O` (configuration not stated) [Erastin] the value was 0. Take `CCNCCS(=O)(=O)NC[C@@]1(c2ccccc2)SC(NC(=O)C(C)(C)C)=NN1C(=O)C(C)(C)C` [Litronesib]: the drug sensitivity score was 16.7. The same measure, in the same setting: to `CNC(=O)c1cccc(-c2ccc3c(N4CCOC[C@@H]4C)nc(N4CCOC[C@@H]4C)nc3n2)c1` [Vistusertib] belongs 10.3; to `CC(C)(C)c1cc(NC(=O)Nc2ccc(-c3cn4c(n3)sc3cc(OCCN5CCOCC5)ccc34)cc2)no1` [Quizartinib], 0.8; to `N[C@@H]1CCCN(c2c(/C=C3\SC(=O)NC3=O)cccc2-c2ccccc2)C1` [AZD1208], 0. Same read-out and setting: to `CCc1c2c(nc3ccc(O)cc13)-c1cc3c(c(=O)n1C2)COC(=O)[C@]3(O)CC` [SN-38] belongs 36.4; to `Cn1cc(-c2ccc(F)c(C(F)(F)F)c2)nc1C1CCN(c2ncnc3[nH]ncc23)CC1`, 3.2; to `C=CC(=O)Nc1cc(Nc2nccc(-c3cn(C)c4ccccc34)n2)c(OC)cc1N(C)CCN(C)C` [Osimertinib], 0.9. In turn, `COC(=O)c1ccc2c(c1)[nH]c1ncnc(NCCCN3CCCCC3)c12` [UM729] showed a drug sensitivity score of 0. On to `Cc1nc(NC(=O)N2CCC[C@H]2C(N)=O)sc1-c1ccnc(C(C)(C)C(F)(F)F)c1` [Alpelisib], for which the drug sensitivity score amounted to 3.2. In the case of `C[C@H]1CNCCCN1S(=O)(=O)c1cccc2cncc(F)c12` [Ripasudil], the drug sensitivity score was determined as 0.6. Same read-out and setting: for `CC(C)(C)C[C@@H]1N[C@@H](C(=O)N[C@H]2CC[C@H](O)CC2)[C@H](c2cccc(Cl)c2F)[C@]12C(=O)Nc1cc(Cl)ccc12` the value was 16.9. Still for that read-out and setting: to `CON(C)C(=O)N1N=C(c2cc(F)ccc2F)S[C@@]1(CCCN)c1ccccc1` [Filanesib] belongs 16.2; to `CN(C)CC#Cc1ccc(OCCCc2sc(N3CCc4cccc(C(=O)Nc5nc6ccccc6s5)c4C3)nc2C(=O)O)c(F)c1`, 6.2.

Consider `COc1cc(N2CCC(N3CCN(C)CC3)CC2)ccc1Nc1ncnc(Nc2ccccc2S(=O)(=O)C(C)C)n1` [ASP3026], for which the drug sensitivity score was 6.4. Same read-out and setting: to `CNC(=O)c1ccccc1Nc1cc(Nc2ccc(N3CCOCC3)cc2OC)ncc1C(F)(F)F` [VS-4718] belongs 6; to `CC(=O)c1c(C)c2cnc(Nc3ccc(N4CCNCC4)cn3)nc2n(C2CCCC2)c1=O` [Palbociclib], 2.9; to `CS(=O)(=O)N1CCN(Cc2cc3nc(-c4cccc5[nH]ncc45)nc(N4CCOCC4)c3s2)CC1` [Pictilisib], 8.2. The same measure, in the same setting: for `CCS(=O)(=O)N1CC(CC#N)(n2cc(-c3ncnc4[nH]ccc34)cn2)C1` [Baricitinib] the value was 0.

Compound `O=C(Nc1cnn2ccc(N3CCC[C@@H]3c3cc(F)ccc3F)nc12)N1CC[C@H](O)C1` [Larotrectinib] yielded a drug sensitivity score of 0.

For `CCN1CCN(Cc2ccc(Nc3ncc(F)c(-c4cc(F)c5nc(C)n(C(C)C)c5c4)n3)nc2)CC1` [Abemaciclib], the drug sensitivity score amounted to 0.7. On the same count and under the same terms, to `O=C(Nc1ccncc1)C(=O)c1cn(Cc2ccc(Cl)cc2)c2ccccc12` [Indibulin] belongs 18.3; to `CN(C)C[C@@H]1CCn2cc(c3ccccc32)C2=C(C(=O)NC2=O)c2cn(c3ccccc23)CCO1` [Ruboxistaurin], 6.2.

For `C[C@H](Nc1ncnc2[nH]cnc12)c1cc2ccc(F)cc2nc1-c1ccccn1` [AMG319], the drug sensitivity score amounted to 0. On the same count and under the same terms, to `CC(C)(C)c1cc(NC(=O)Nc2ccc(Oc3ccnc4[nH]c(=O)cnc34)cc2F)n(-c2ccccc2)n1` belongs 12.8; to `CCn1cc(-c2ccnc3[nH]c(-c4cccc(CN(C)C)c4)cc23)c(-c2ccc(NC(=O)N(C)C)cc2)n1`, 1.4. On the same count and under the same terms, for `CCCCCCCCc1ccc(CCC(N)(CO)CO)cc1` [Fingolimod] the value was 5.4; for `C1=N/C2=N/c3ccc(OCCN4CCCC4)c(c3)COC/C=C/COCc3cccc(c3)C(=C1)N2` [Pacritinib], 8.2; for `Nc1ccccc1NC(=O)c1ccc(CNc2nccc(-c3cccnc3)n2)cc1` [Mocetinostat], 15.7. For `N#CC1(c2ccc(NC(=O)c3cccnc3NCc3ccncc3)cc2)CCCC1` [Apatinib], the drug sensitivity score turned out to be 0.
